According to paper PMC10687260, “1,3-Diphenylureido hydroxamate as a promising scaffold for generation of potent antimalarial histone deacetylase inhibitors” (Scientific Reports, 2023):

What was measured:
[1] = Stability in human hepatic microsomes; format: in vitro ADME; conditions: for half-life at 1 µM: 1 mg/mL hepatic microsomes, 1 µM compound, read-out: Half-life t1/2 Human; for microsomal CLint at 1 µM: read-out: Intrinsic clearance Clint Human
Source text: DMPK evaluation. […].

human HDAC1 = target: T1, human HDAC1 (Homo sapiens, UniProt Q13547); test: In vitro HDAC enzymatic assay, HDAC1; format: biochemical; conditions: mean ± SD
T1 construct: purchased ENZO Life Sciences AG (Lausen, CH)
Procedure: In vitro HDAC enzymatic assays. Recombinant human HDAC1 and HDAC6 were purchased from ENZO Life Sciences AG (Lausen, CH) whereas HDAC8 was produced as described before. In vitro testing of the inhibitors in an enzymatic assay was carried out as described in previous publications[32],[33]. For HDAC1 a fluorogenic peptide derived from p53 (Ac-RHKK(Acetyl)-AMC) was used. For HDAC6, the substrate (Abz-SRGGK(thio-TFA)FFRR-NH2) was used as described before.

CYP450 2C9 = target: T2, CYP450 2C9 (Homo sapiens, UniProt P11712); test: CYP450 inhibition in human liver microsomes, 2C9; format: in vitro ADME; conditions: 10 µM
T2 construct: 10 μM compound was incubated with human liver microsomes and selective marker substrates; from tissue; host or cells: human liver microsomes

CYP450 2D6 = target: T3, CYP450 2D6 (Homo sapiens, UniProt P10635); test: CYP450 inhibition in human liver microsomes, 2D6; format: in vitro ADME; conditions: 10 µM
T3 construct: 10 μM compound was incubated with human liver microsomes and selective marker substrates; from tissue; host or cells: human liver microsomes

CYP1A2 = target: T4, CYP1A2 (Homo sapiens, UniProt P05177); test: CYP450 inhibition in human liver microsomes, 1A2; format: in vitro ADME; conditions: 10 µM
T4 construct: 10 μM compound was incubated with human liver microsomes and selective marker substrates; from tissue; host or cells: human liver microsomes
T4 sequence (P05177 1-516): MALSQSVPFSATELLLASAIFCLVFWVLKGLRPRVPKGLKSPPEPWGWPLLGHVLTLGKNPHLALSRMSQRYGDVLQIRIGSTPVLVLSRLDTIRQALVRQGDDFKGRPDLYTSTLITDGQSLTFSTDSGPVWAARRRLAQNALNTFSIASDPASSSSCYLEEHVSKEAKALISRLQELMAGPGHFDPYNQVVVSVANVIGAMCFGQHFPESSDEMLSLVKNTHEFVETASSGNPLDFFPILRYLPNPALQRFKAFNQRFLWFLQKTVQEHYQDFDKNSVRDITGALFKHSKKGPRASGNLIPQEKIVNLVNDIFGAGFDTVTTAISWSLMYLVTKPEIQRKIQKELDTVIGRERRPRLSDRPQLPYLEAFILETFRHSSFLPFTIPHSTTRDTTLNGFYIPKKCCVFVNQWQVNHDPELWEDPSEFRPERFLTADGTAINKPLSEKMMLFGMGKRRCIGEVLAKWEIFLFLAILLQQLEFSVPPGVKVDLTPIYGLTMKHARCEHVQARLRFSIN

PfHDAC1 = target: T5, PfHDAC1 (Plasmodium falciparum, UniProt Q7K6A1); test: In vitro PfHDAC1 enzymatic assay; format: biochemical; conditions: for inhibition at 1 µM / inhibition at 10 µM: recombinant PfHDAC1
T5 construct: purchased BPS Bioscience (San Diego, CA)
T5 sequence (Q7K6A1 1-449): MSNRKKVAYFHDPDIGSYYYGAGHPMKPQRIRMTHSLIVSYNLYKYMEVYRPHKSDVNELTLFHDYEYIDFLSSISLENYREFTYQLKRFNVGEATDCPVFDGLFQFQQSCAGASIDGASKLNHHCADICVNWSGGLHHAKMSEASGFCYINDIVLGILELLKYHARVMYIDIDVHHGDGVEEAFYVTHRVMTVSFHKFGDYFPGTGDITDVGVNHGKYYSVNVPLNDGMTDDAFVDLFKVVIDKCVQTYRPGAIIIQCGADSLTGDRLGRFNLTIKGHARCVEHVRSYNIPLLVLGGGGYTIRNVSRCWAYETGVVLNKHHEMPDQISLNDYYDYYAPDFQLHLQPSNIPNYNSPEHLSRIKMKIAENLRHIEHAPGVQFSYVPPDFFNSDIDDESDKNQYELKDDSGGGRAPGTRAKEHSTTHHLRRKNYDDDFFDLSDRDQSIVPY
Procedure: In vitro PfHDAC1 enzymatic assay. PfHDAC inhibition assays were performed by BPS Bioscience (San Diego, CA). […] Then, each DMSO solution was directly diluted 10 × fold into the HDAC assay buffer for an intermediate dilution of 10% DMSO in HDAC assay buffer. Then, 5 µL of the intermediate dilution was added to a 50 µL reaction so that the final concentration of DMSO is 1% in all the reactions. […] Fluorescence intensity was measured at an excitation of 360 nm and an emission of 460 nm using a Tecan Infinite M1000 microplate reader. […] The fluorescent intensity data were analyzed using GraphPad Prism (v9.5.2). In the absence of the compound, the fluorescent intensity (Ft) in each data set was defined as 100% activity. In the absence of HDAC, the fluorescent intensity (Fb) in each data set was defined as 0% activity. The percent activity in the presence of each compound was calculated according to the following equation: % activity = (F-Fb)/(Ft-Fb), where “F” is the fluorescent intensity in the presence of the compound.

P. falciparum 3D7 = test: Antiplasmodial SYBR Green I proliferation assay, P. falciparum 3D7; format: cell-based, Plasmodium falciparum; conditions: Plasmodium falciparum, 3D7, 96 h, 96 h; values in brackets 95% confidence intervals; read-out: IC50 Pf3D7
Summary of the method: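 SYBR Green I DNA-content proliferation assay on P. falciparum 3D7 and Dd2 in human O+ erythrocytes. Fluorescence after 1 h lysis with 0.02% SYBR Green I, scaled 0–100% against untreated parasites; curves by non-linear regression on means of three independent triplicate experiments.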

T2 sequence (P11712 whole entry): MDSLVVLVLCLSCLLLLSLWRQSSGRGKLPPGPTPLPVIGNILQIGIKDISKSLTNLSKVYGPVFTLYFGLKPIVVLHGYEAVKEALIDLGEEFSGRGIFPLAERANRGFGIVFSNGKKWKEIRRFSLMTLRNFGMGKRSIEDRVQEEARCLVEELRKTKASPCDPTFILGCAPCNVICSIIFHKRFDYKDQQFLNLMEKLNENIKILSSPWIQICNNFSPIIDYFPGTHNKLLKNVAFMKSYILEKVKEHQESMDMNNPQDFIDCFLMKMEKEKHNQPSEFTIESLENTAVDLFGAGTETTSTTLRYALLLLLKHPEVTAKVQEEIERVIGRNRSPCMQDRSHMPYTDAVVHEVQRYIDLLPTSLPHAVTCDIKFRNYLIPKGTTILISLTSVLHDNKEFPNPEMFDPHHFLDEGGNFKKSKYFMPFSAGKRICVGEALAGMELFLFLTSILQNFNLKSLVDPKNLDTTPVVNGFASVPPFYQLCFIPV
T3 sequence (P10635 whole entry): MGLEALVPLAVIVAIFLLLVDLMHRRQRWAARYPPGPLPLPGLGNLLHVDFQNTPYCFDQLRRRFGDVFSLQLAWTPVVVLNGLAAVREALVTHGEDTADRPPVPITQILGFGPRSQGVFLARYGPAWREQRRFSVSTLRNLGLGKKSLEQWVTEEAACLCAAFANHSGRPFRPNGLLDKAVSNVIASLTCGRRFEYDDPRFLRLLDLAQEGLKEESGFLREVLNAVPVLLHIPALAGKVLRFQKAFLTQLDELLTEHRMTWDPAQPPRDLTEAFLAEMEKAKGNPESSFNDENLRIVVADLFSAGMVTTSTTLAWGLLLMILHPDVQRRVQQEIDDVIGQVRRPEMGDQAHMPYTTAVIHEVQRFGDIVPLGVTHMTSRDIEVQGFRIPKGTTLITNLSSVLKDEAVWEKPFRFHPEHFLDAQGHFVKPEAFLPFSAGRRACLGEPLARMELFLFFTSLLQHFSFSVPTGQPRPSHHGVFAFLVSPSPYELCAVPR
T1 sequence (Q13547 whole entry): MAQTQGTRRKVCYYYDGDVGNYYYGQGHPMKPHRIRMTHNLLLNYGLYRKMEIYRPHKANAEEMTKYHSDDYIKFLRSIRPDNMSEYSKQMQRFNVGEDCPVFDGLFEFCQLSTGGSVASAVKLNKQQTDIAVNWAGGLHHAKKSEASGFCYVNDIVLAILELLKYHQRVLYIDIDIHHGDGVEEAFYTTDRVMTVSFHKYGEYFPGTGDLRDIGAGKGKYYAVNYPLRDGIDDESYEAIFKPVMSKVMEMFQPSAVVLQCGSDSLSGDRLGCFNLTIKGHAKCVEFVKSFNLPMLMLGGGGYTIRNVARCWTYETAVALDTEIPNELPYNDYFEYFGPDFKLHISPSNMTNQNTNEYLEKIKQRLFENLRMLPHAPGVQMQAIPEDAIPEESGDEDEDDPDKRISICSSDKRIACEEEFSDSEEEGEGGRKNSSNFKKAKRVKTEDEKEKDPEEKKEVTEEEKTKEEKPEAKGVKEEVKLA

Compound	half-life at 1 µM [1] [h]	microsomal CLint at 1 µM [1] [µL/min/mg]	melting point	IC50 (human HDAC1) [nM]	CYP450% inhibition @ 10 µM 2C9 (CYP450 2C9)	CYP450% inhibition @ 10 µM 2D6 (CYP450 2D6)	CYP450% inhibition @ 10 µM 1A2 (CYP1A2)	inhibition at 1 µM (PfHDAC1) [%]	remaining activity at 1 µM (PfHDAC1; 1 µM, read-out: PfHDAC1 residual activity) [%]	inhibition at 10 µM (PfHDAC1) [%]	IC50 (P. falciparum 3D7) [nM]
COc1ccc(NC(=O)Nc2ccc(/C=C/C(=O)NO)cc2)cc1 [Compound 6c, (E)-N-hydroxi-3-(4-(3-(4-methoxyphenyl)ureido)phenyl)acrylamide]	0.66	17	210 °C (dec.)	1580 ± 62.2	18%	*^b (Inhibition < 10%)	32%	69	26	82	1030
COc1ccc(NC(=O)Nc2ccc(CCC(=O)NO)cc2)cc1 [Compound 7c, N-hydroxy-3-(4-(3-(4-methoxyphenyl)ureido)phenyl)propanamide]	> 2	< 6	202 to 204 °C	3560 ± 185	* (Inhibition < 10%)	* (Inhibition < 10%)	22%	~50		88	5820
O=C(Nc1ccccc1)Nc1ccc(C(=O)NO)cc1 [Compound 8a, N-hydroxy-4-(3-phenylureido)bezamide]	> 2	< 6	304 °C (dec.)	5330 ± 366	* (Inhibition < 10%)	* (Inhibition < 10%)	48%				560
O=C(Nc1ccc(Cl)cc1)Nc1ccc(C(=O)NO)cc1 [Compound 8b, 4-(3-(4-chlorophenyl)ureido)-N-hydroxybenzamide]	1.1	10	357 °C (dec.)	5240 ± 476	* (Inhibition < 10%)	* (Inhibition < 10%)	42%				1310
COc1ccc(NC(=O)Nc2ccc(C(=O)NO)cc2)cc1 [Compound 8c, N-hydroxy-4-(3–4(-methoxyphenyl)ureido)benzamide]	1.65	7		6180 ± 231	* (Inhibition < 10%)	* (Inhibition < 10%)	* (Inhibition < 10%)	~50			740
O=C(Nc1ccc(C(=O)NO)cc1)Nc1ccc([N+](=O)[O-])cc1 [Compound 8d, N-hydroxy-4-(3-(4-nitrophenyl)ureido)benzamide]	> 2	< 6	312 °C (dec.)	3740 ± 232	* (Inhibition < 10%)	* (Inhibition < 10%)	* (Inhibition < 10%)				550
